Reference: patent US6525001B1, “Substituted pyrimidine and pyridine herbicides” (Mid-American Commercialization Corporation, priority 1997, dated 2003)

Columns and labels:
Assay in all cases: Test D
Format in all cases: in vivo
[1] = test system: Russian thistle (Salsola kali); design: key: 0 is no effect; 100 is complete control; conditions: PREEMERGENCE
[2] = test system: Italian ryegrass (Lolium multiflorum); conditions: PREEMERGENCE
[3] = test system: chickweed (Stellaria media); conditions: PREEMERGENCE
[4] = test system: sugar beet (Beta vulgaris); design: key: 0 is no effect; 100 is complete control; conditions: PREEMERGENCE
[5] = test system: spring wheat (Triticum aestivum); design: key to Plant response rating, Spring Wheat: 0 is no effect; conditions: PREEMERGENCE
[6] = test system: deadnettle (Lamium amplexicaule); conditions: PREEMERGENCE
[7] = test system: field violet (Viola arvensis); conditions: PREEMERGENCE
[8] = test system: sunflower (Helianthus annuus); conditions: PREEMERGENCE
[9] = test system: rape (Brassica napus); design: key: 0 is no effect; 100 is complete control; conditions: PREEMERGENCE
[10] = test system: galium 2 (Galium aparine); design: key: 0 is no effect; 100 is complete control; conditions: PREEMERGENCE
[11] = test system: scentless chamomile (Matricaria inodora); conditions: POSTEMERGENCE
Experimental: (§1) Compounds evaluated in this test were formulated in a non-phytotoxic solvent mixture which included a surfactant and applied to plants that were in the 1- to 4-leaf stage (postemergence application). A mixture of sandy loam soil and greenhouse potting mix in a 60:40 ratio was used for the postemergence test.
(§2) Plantings of these crops and weed species were adjusted to produce plants of appropriate size for the postemergence test. All plant species were grown using normal greenhouse practices. Crop and weed species include alfalfa (Medicago sativa), annual bluegrass (Poa annua), blackgrass (Alopecurus myosuroides), black nightshade (Solanum nigra), chickweed (Stellaria media), common poppy (Papaver rhoeas), deadnettle (Lamium amplexicaule), downy brome (Bromus tectorum), field violet (Viola arvensis), galium 2 (Galium aparine), green foxtail (Setaria viridis), Italian ryegrass (Lolium multiflorum), jointed goatgrass (Aegilops cylindrica), kochia (Kochia scoparia), lambsquarters (Chenopodium album), lentil (Lens culinaris), littleseed canarygrass (Phalaris minor), pea (Pisum sativum), potato (Solanum tuberosum), rape (Brassica napus), redroot pigweed (Amaranthus retroflexus), Russian thistle (Salsola kali), scentless chamomile (Matricaria inodora), sorghum (Sorghum vulgare), spring barley (Hordeum vulgare), sugar beet (Beta vulgaris), sunflower (Helianthus annuus), ivyleaf speedwell (Veronica hederaefolia), spring wheat (Triticum aestivum), winter wheat (Triticum aestivum), wild buckwheat (Polygonum convolvulus), wild mustard (Sinapis arvensis), wild oat (Avena fatua), windgrass (Apera spica-venti) and winter barley (Hordeum vulgare).
(§3) Treated plants and untreated controls were maintained in a greenhouse for approximately 21 to 28 days, after which all treated plants were compared to untreated controls and visually evaluated. Plant response ratings, summarized in Table D, are based upon a 0 to 100 scale where 0 is no effect and 100 is complete control. A dash response (−) means no test result.

[12] = test system: spring barley (Hordeum vulgare); conditions: POSTEMERGENCE
Experimental: as §1, §2, §3

[13] = test system: green foxtail (Setaria viridis); conditions: POSTEMERGENCE
Experimental: as §1, §2, §3

[14] = test system: winter wheat (Triticum aestivum); conditions: POSTEMERGENCE
Experimental: as §1, §2, §3

[15] = test system: annual bluegrass (Poa annua); conditions: POSTEMERGENCE
Experimental: as §1, §2, §3

[16] = test system: sunflower (Helianthus annuus); conditions: POSTEMERGENCE
Experimental: as §1, §2, §3

[17] = test system: spring wheat (Triticum aestivum); conditions: POSTEMERGENCE
Experimental: as §1, §2, §3

[18] = test system: wild oat (Avena fatua); conditions: POSTEMERGENCE
Experimental: as §1, §2, §3

[19] = test system: Italian ryegrass (Lolium multiflorum); conditions: POSTEMERGENCE
Experimental: as §1, §2, §3

[20] = test system: windgrass (Apera spica-venti); design: key: 0 is no effect; 100 is complete control; conditions: PREEMERGENCE
[21] = test system: black nightshade (Solanum nigra); design: key: 0 is no effect; 100 is complete control; conditions: PREEMERGENCE
[22] = test system: winter barley (Hordeum vulgare); conditions: PREEMERGENCE
[23] = test system: annual bluegrass (Poa annua); design: key: 0 is no effect; 100 is complete control; conditions: PREEMERGENCE

Cc1cnc(-c2ccc(C(F)(F)F)cc2)nc1Cc1cccc(C(F)(F)F)c1 [Example 1, 5-methyl-2-[4-(trifluoromethyl)phenyl]-4-[[3-(trifluoromethyl)phenyl]methyl]pyrimidine]
Plant response rating, Russian thistle ([1]; Rate 31 g/ha): 10
Plant response rating, Russian thistle ([1]; Rate 62 g/ha): 100
Plant response rating, Russian thistle ([1]; Rate 250 g/ha): 100
Plant response rating, I. Ryegrass ([2]; Rate 31 g/ha): 10
Plant response rating, I. Ryegrass ([2]; Rate 62 g/ha): 40
Plant response rating, Chickweed ([3]; Rate 31 g/ha): 55
Plant response rating, Chickweed ([3]; Rate 62 g/ha): 85
Plant response rating, Chickweed ([3]; Rate 125 g/ha): 85
Plant response rating, Chickweed ([3]; Rate 250 g/ha): 90
Plant response rating, Sugar beet ([4]; Rate 31 g/ha): 30
Plant response rating, Sugar beet ([4]; Rate 62 g/ha): 100
Plant response rating, Sugar beet ([4]; Rate 125 g/ha): 85
Plant response rating, Sugar beet ([4]; Rate 250 g/ha): 100
Plant response rating, Spring Wheat ([5]; Rate 31 g/ha): 0
Plant response rating, Wheat (spring) ([5]; Rate 31 g/ha): 10
Plant response rating, Spring Wheat ([5]; Rate 62 g/ha): 0
Plant response rating, Wheat (spring) ([5]; Rate 62 g/ha): 10
Plant response rating, Spring Wheat ([5]; Rate 125 g/ha): 0
Plant response rating, Wheat (spring) ([5]; Rate 125 g/ha): 50
Plant response rating, Wheat (spring) ([5]; Rate 250 g/ha): 30
Plant response rating, Deadnettle ([6]; Rate 31 g/ha): 60
Plant response rating, Deadnettle ([6]; Rate 62 g/ha): 65
Plant response rating, Deadnettle ([6]; Rate 125 g/ha): 85
Plant response rating, Deadnettle ([6]; Rate 250 g/ha): 90
Plant response rating, Field violet ([7]; Rate 31 g/ha): 20
Plant response rating, Field violet ([7]; Rate 62 g/ha): 70
Plant response rating, Field violet ([7]; Rate 125 g/ha): 85
Plant response rating, Field violet ([7]; Rate 250 g/ha): 85
Plant response rating, Sunflower ([8]; Rate 31 g/ha): 10
Plant response rating, Sunflower ([8]; Rate 62 g/ha): 35
Plant response rating, Sunflower ([8]; Rate 125 g/ha): 50
Plant response rating, Sunflower ([8]; Rate 250 g/ha): 30
Plant response rating, Rape ([9]; Rate 31 g/ha): 30
Plant response rating, Rape ([9]; Rate 62 g/ha): 75
Plant response rating, Rape ([9]; Rate 125 g/ha): 100
Plant response rating, Rape ([9]; Rate 250 g/ha): 100
Plant response rating, Galium ([10]; Rate 31 g/ha): 20
Plant response rating, Galium ([10]; Rate 62 g/ha): 100
Plant response rating, Galium ([10]; Rate 125 g/ha): 100
Plant response rating, Galium ([10]; Rate 250 g/ha): 100
Plant response rating, Scentless chamo ([11]; Rate 16 g/ha): 30
Plant response rating, Scentless chamo ([11]; Rate 31 g/ha): 60
Plant response rating, Scentless chamo ([11]; Rate 62 g/ha): 60
Plant response rating, Scentless chamo ([11]; Rate 125 g/ha): 60
Plant response rating, Spring Barley ([12]; Rate 16 g/ha): 5
Plant response rating, Spring Barley ([12]; Rate 31 g/ha): 10
Plant response rating, Spring Barley ([12]; Rate 62 g/ha): 10
Plant response rating, Spring Barley ([12]; Rate 125 g/ha): 10
Plant response rating, Green foxtail ([13]; Rate 16 g/ha): 5
Plant response rating, Green foxtail ([13]; Rate 31 g/ha): 10
Plant response rating, Green foxtail ([13]; Rate 62 g/ha): 20
Plant response rating, Green foxtail ([13]; Rate 125 g/ha): 20
Plant response rating, Wheat (winter) ([14]; Rate 16 g/ha): 5
Plant response rating, Wheat (winter) ([14]; Rate 31 g/ha): 10
Plant response rating, Wheat (winter) ([14]; Rate 62 g/ha): 10
Plant response rating, Wheat (winter) ([14]; Rate 125 g/ha): 10
Plant response rating, Annual bluegras ([15]; Rate 16 g/ha): 20
Plant response rating, Annual bluegras ([15]; Rate 31 g/ha): 50
Plant response rating, Annual bluegras ([15]; Rate 62 g/ha): 50
Plant response rating, Sunflower ([16]; Rate 16 g/ha): 5
Plant response rating, Sunflower ([16]; Rate 31 g/ha): 10
Plant response rating, Sunflower ([16]; Rate 62 g/ha): 20
Plant response rating, Sunflower ([16]; Rate 125 g/ha): 20
Plant response rating, Spring Wheat ([17]; Rate 16 g/ha): 5
Plant response rating, Spring Wheat ([17]; Rate 31 g/ha): 10
Plant response rating, Spring Wheat ([17]; Rate 62 g/ha): 10
Plant response rating, Spring Wheat ([17]; Rate 125 g/ha): 20
Plant response rating, Wild oat ([18]; Rate 16 g/ha): 5
Plant response rating, Wild oat ([18]; Rate 31 g/ha): 20
Plant response rating, Wild oat ([18]; Rate 62 g/ha): 20
Plant response rating, Wild oat ([18]; Rate 125 g/ha): 30
Plant response rating, I. Ryegrass ([19]; Rate 16 g/ha): 5
Plant response rating, I. Ryegrass ([19]; Rate 31 g/ha): 10
Plant response rating, I. Ryegrass ([19]; Rate 62 g/ha): 10
Plant response rating, I. Ryegrass ([19]; Rate 125 g/ha): 10
Plant response rating, Windgrass ([20]; Rate 31 g/ha): 60
Plant response rating, Windgrass ([20]; Rate 62 g/ha): 100
Plant response rating, Windgrass ([20]; Rate 125 g/ha): 100
Plant response rating, Windgrass ([20]; Rate 250 g/ha): 100
Plant response rating, Blk nightshade ([21]; Rate 31 g/ha): 55
Plant response rating, Blk nightshade ([21]; Rate 62 g/ha): 90
Plant response rating, Blk nightshade ([21]; Rate 125 g/ha): 100
Plant response rating, Blk nightshade ([21]; Rate 250 g/ha): 100
Plant response rating, Barley (winter) ([22]; Rate 31 g/ha): 10
Plant response rating, Barley (winter) ([22]; Rate 62 g/ha): 20
Plant response rating, Barley (winter) ([22]; Rate 125 g/ha): 30
Plant response rating, Barley (winter) ([22]; Rate 250 g/ha): 40
Plant response rating, Annual bluegras ([23]; Rate 31 g/ha): 75
Plant response rating, Annual bluegras ([23]; Rate 62 g/ha): 60
Plant response rating, Annual bluegras ([23]; Rate 125 g/ha): 100
Plant response rating, Annual bluegras ([23]; Rate 250 g/ha): 85
